Data published in patent US8039014B2, “3′-alkoxyspirocyclopentyl-substituted tetramic and tetronic acids” (Bayer Cropscience AG, priority 2005, dated 2011).

System: cereal
Assay: Herbicidal post-emergence action with safener: container trials with cereal outdoors ('bird cage'), mefenpyr 1 day prior to herbicide application
Type: in vivo
Settings: without safener
Procedure: Seeds of monocotyledonous and dicotyledonous weed and crop plants are placed into sandy loam in wood fiber pots or in plastic pots, covered with soil and cultivated in a greenhouse, during the vegetation period also outdoors outside of the greenhouse, under good growth conditions. 2 to 3 weeks after sowing, the test plants are treated at the one- to three-leaf stage. The test compounds, formulated as wettable powders (WP) or liquid (EC), are, in various dosages at a water application rate of 300 l/ha (converted), with wetting agent (0.2 to 0.3%) added, sprayed onto the plants and the surface of the soil. […]
If it is additionally to be tested as to whether safeners can improve the plant compatibility of test substances in the case of crop plants, the following options are used for applying the safener: • seeds of the crop plants are, before sowing, dressed with the safener substance (the amount of safener stated in percent, based on the weight of the seed) • before the application of the test substances, the crop plants are sprayed with the safener at a certain application rate per hectare (usually 1 day before the application of the test substances) • the safener is applied together with the test substance as a tank mix (the amount of safener is stated in g/ha or as a ratio, based on the herbicide). […]

CCc1cc(Cl)cc(OC)c1C1=C(O)C2(CCC(OC)C2)NC1=O (centres unmarked) [Example I-1-a-4]
Summer wheat after 10 d observed (%) (25 g ai/ha): 25%
Summer wheat after 10 d observed (%) (50 g ai/ha): 40%
